# In publication PMC11732138, “Gold complex compounds that inhibit drug-resistant Staphylococcus aureus by targeting thioredoxin reductase” (Frontiers in Antibiotics, 2023):
# “Also recorded” adds a separate entry of the source. Like-named read-outs stand apart in the source and are kept apart here.
# Experiments:
# A549 cells = test: Immortalized cell line toxicity (WST-1), A549; type: cell-based, human; settings: A549 lung carcinoma cell line, 24 h
# Experimental: (§1) A hepatic cell line (HepG2), lung carcinoma cell line (A549), and kidney cell line (HKC) were used to test the cytotoxicity of investigational compounds. Cells were grown in DMEM (ThermoFisher Scientific, Waltham, MA, USA) supplemented with 10% fetal bovine serum (FBS) (ThermoFisher Scientific, Waltham, MA, USA) and 1% penicillin/streptomycin (ThermoFisher Scientific, Waltham, MA, USA) and maintained at 37°C in 5% CO2. 2.5x10^4 cells in 100 μL of DMEM with 10% FBS were added to wells of 96-well plates 24 h prior to the experiments. Compounds were serially diluted in […], and 100 μL antibiotic-free DMEM was added to the monolayer and incubated at 37°C in 5% CO2 for 24 h. At 2 h before the end of the incubation period, 10 μL of 2-(4-iodophenyl)-3-(4-nitrophenyl)-5-(2, 4-disulfophenyl)-2H-tetrazolium (WST-1) solution (Roche, Mannheim, Germany) was added to each well. WST-1 reduction was monitored at 450 nm using a Vmax microplate reader. Assays were performed in triplicate, and the percentage survival was calculated by comparing the compound-treated wells to the DMSO vehicle control wells.
# HepG2 cells = test: Immortalized cell line toxicity (WST-1), HepG2; type: cell-based, human; settings: HepG2 liver cell line, 24 h
# Experimental: as §1
# S. aureus TrxR = S. aureus TrxR (Staphylococcus aureus, UniProt P66011); test: TrxR (TrxB) enzymatic assay, DTNB to TNB conversion
# S. aureus TrxR, sequence (P66011 whole entry): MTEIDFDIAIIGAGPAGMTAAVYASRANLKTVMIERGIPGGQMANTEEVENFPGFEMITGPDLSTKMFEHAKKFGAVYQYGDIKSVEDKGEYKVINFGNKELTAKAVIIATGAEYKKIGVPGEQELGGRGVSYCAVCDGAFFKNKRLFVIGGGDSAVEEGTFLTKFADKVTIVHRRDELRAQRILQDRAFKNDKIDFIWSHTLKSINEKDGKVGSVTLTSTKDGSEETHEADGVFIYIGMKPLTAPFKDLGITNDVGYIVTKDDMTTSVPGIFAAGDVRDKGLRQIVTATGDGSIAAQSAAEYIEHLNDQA
# Experimental: TrxR specific inhibitory activity was evaluated using 40 μL of S. aureus TrxR enzyme (0.5 μg/μL) per 200 mL of the reaction mixture for 15 minutes, comparing auranofin to other sulfur-containing compounds (all tested at 10 μg/mL), including known anti-S. aureus compounds.
# For the screening assay, diluted TrxR assay buffer (Cayman Chemical, Ann Arbor, MI) (100 μL) was mixed with the investigational compounds (20 μL) in a 96 well-plate format and combined with Sa-TrxB (40 μL; 0.5 μg/mL), DTNB (20 μL) and NADPH (20 μL). The reaction entailed combining NADPH and Sa-TrxB with DTNB, which was converted to TNB, producing a yellow color.
# [1] = Compound solubility in DMSO; type: physicochemical; settings: organic solvent or mixture, turbidity at 540 nm, read-out: concentration at which reduced solubility began in DMSO
# Experimental: To test compound solubility, stock solutions were made in triplicate at 50 mg/mL in DMSO. Two-fold serial dilutions of the test compounds were prepared at 50 μL volume in a 96-well assay plate and were kept in the incubator for 1 h. After incubation, the absorbance was measured at 540 nm using a Vmax microplate reader (Molecular Devices, Sunnyvale, CA, USA.) to detect turbidity.
# HKC cells = test: Immortalized cell line toxicity (WST-1), HKC; type: cell-based, human; settings: HKC kidney cell line, 24 h
# Experimental: as §1
# [2] = test system: human primary hepatocytes; test: Human primary hepatocytes toxicity; type: cell-based; settings: 24 h, WST1
# Experimental: Human primary hepatocytes toxicity. Cryopreserved human primary hepatocytes were purchased from the Cell Resource Core at Massachusetts General Hospital (Boston, MA, USA). Collagen sandwiched configuration was used to culture the thawed cells in 24-well plates. The 24-well plates were coated with rat tail collagen type I (Cell Recourse Core, MGH) and incubated for an hour before 4 x 10^5 live cells were plated and incubated at 37°C with 5% CO2 for 1 h to allow cells to attach to the collagen gel. After incubation, the medium was removed along with dead cells, and the remaining cells received 0.5 mL of hepatocyte culture medium containing Dulbecco’s modified Eagle’s medium (DMEM) media supplemented with 10% FBS, 0.5 U/mL insulin, 14 ng/mL glucagon, 20 ng/mL EGF, 7.5 µg/mL hydrocortisone and 200 U/mL penicillin-streptomycin. The cell cultures were incubated in a humidified, 5% CO2 incubator at 37°C. After 24 h, a top layer of collagen gel was poured over the hepatocytes attached to collagen on the bottom of the plate, making a sandwich model. After 1 h, investigational compounds at the designated concentrations were added and incubated for 24 h. Post incubation, hepatocyte WST1 (Roche, Basel, Switzerland) was added and incubated for 4 h. Cell staining was measured by recording the absorbance at 420 nm, measured using a Vmax microplate reader (Molecular Devices, San Jose, CA, USA.), and data were plotted using GraphPad Prism. Cells were tested in triplicate.
# S. aureus MW2 = test: Time to kill assay; type: cell-based, Staphylococcus aureus; settings: 4 × MIC, 4 h; bactericidal = 3-log10-CFU/mL reduction
# Experimental: S. aureus MW2, a methicillin-resistant S. aureus (MRSA) isolate, was used to determine the bacteriostatic/bactericidal properties of test compounds, as previously described ([Rajamuthiah et al., 2015]). Assays were carried out as 2 biological replicates with n=3 for each in 24 well plates (BD Biosciences, Franklin Lakes, NJ, USA). Briefly, S. aureus MW2 cells were streaked on TSB agar from a frozen glycerol stock, and after overnight incubation, a single colony was inoculated on 2 mL of TSB and incubated at 37°C with agitation. The overnight culture of S. aureus MW2 was centrifuged at 4000 g for 5 min and then washed twice with PBS and collected through centrifuged at 4000 g for 5 min. The PBS was discarded and cells were suspended in TSB and aliquoted into a 24-well plate at a density of 10^8 cells/mL as a 1 mL volume. Test compounds were added such that the final concentration was 4 × MIC, and the cultures were incubated at 37°C with agitation. At designated time intervals, 5 μL aliquots from each test condition were serially diluted in TSB and plated onto TSA (BD Biosciences, Franklin Lakes, NJ, USA). CFUs were enumerated after overnight incubation at 35°C, and data were plotted using GraphPad Prism 9.0 (San Diego, CA, USA) to report the means and standard deviation of growth as measured by CFU/mL.
# hERG channel = hERG channel (Homo sapiens, UniProt Q12809); test: hERG measurement (QPatch HTX patch clamp)
# hERG channel, sequence (Q12809 whole entry): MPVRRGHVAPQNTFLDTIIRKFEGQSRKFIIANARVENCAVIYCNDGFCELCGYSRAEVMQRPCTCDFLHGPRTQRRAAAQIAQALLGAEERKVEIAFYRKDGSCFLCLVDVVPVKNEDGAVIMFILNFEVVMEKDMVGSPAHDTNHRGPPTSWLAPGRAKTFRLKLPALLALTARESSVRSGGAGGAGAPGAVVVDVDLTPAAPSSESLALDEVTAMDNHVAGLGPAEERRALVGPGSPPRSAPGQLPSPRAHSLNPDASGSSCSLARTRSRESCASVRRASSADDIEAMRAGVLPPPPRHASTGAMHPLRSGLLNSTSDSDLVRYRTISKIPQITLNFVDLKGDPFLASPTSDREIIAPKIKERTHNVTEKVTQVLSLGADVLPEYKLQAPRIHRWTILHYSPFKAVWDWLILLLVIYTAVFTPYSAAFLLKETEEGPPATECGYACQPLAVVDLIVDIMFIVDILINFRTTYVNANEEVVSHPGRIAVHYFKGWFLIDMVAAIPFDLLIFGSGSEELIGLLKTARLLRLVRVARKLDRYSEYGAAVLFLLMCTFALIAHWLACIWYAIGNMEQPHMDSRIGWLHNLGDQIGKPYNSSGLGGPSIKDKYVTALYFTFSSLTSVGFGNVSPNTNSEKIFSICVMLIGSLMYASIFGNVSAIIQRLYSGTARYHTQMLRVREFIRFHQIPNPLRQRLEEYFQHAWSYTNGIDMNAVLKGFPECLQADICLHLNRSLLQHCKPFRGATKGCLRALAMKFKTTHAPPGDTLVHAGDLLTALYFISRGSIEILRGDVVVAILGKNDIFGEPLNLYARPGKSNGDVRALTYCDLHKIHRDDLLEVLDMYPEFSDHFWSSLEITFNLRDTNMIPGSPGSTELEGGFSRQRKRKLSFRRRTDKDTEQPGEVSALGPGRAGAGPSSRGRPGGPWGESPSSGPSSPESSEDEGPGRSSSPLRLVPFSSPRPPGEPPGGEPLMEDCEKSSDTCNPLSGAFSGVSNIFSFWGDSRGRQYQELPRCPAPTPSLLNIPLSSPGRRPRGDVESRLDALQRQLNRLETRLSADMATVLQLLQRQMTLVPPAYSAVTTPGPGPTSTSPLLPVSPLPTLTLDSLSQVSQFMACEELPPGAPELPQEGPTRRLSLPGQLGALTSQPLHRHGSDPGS
# Text: QPatch HTX system (Sophion Biosciences A/S, Ballerup, Denmark) was used to examine hERG signaling (Cyprotex, Watertown, MA, USA). The system was primed with appropriate extracellular (NaCl, KCl, CaCl2, MgCl2, D-glucose, HEPES, pH 7.4) and intracellular (KCl, MgCl2, EGTA, MgATP, HEPES, pH 7.2) solutions before conducting the study in a 48 well plate (QPlate, Sophion Biosciences A/S, Ballerup, Denmark). All cell suspensions, buffers, and test compound solutions were kept at room temperature during the experiment. HEK293 cells stably transfected with hERG cDNA were washed and positioned into each well (recording chamber) of the QPlate. The QPatch system follows the general principles of conventional whole-cell patch-clamping: a high resistance seal is formed between the patch electrode, and an individual cell, the membrane across the electrode tip is then ruptured, and the whole-cell patch-clamp configuration is established. The standard voltage profile was as follows: step from -80 mV to –50 mV for 200 ms, +20 mV for 4.8 s, step to -50 mV for 5 s, then stepped to the holding potential of -80 mV. The step from -80 mV to the test command (+20 mV) results in an outward current (i.e., current flows out of the cell), and the step from the test command (+20 mV) to -50 mV results in the tail current (the tail current represents deactivation of the current overtime). Compound dilutions were prepared by diluting a DMSO solution (default 10 mM), followed by dilution into an extracellular buffer such that the final concentrations tested were 0.1, 1, and 10 μM (final DMSO concentration 0.1%). Perfusion solutions contained 0.05% Pluronic F-68 and were stored at room temperature for the duration of the experiment each day. The voltage protocol was run and recorded continuously during the experiment. Cells were treated with a vehicle for 3 min (i.e., 0.1% DMSO) followed by three increasing test substance concentrations (0.1, 1, and 10 μM). The test compounds were applied in triplicate at each concentration and tested in at least 2 cells (biological replicates). […]
# [3] = test system: renal proximal tubule epithelial cells; test: Renal proximal tubule epithelial cell toxicity; type: cell-based, human; settings: renal proximal tubule epithelial cells
# [4] = Immortalized cell line toxicity (WST-1), the three cell lines together; type: cell-based; settings: human, hkc, hepg2, a549 cells, HKC, HepG2, A549; read-out: toxicity to cell lines as multiple of the MIC
# Experimental: as §1
# [5] = Compound solubility in PBS; type: physicochemical; settings: aqueous buffer
# Experimental: Compound solubility in PBS. Compound solubility was measured in PBS. Briefly, serial dilutions of test compounds were prepared in DMSO at 100x the final concentration. Test compound solutions were diluted 100-fold into PBS in a 96-well plate and mixed. After 2 h, the presence of precipitate was detected by measuring absorbance at 540 nm.
smiles,measurement,setting,value
CC(C)(C)c1ccc(S(=O)[O-])cc1.[Au+].c1ccc(P(c2ccccc2)c2ccccc2)cc1 [AU5],LD50,A549 cells,approximately 4 μg/mL
same,LD50,HepG2 cells,approximately 4 μg/mL
same,IC50,S. aureus TrxR,1830 nM
same,solubility at 1 h,[1],6.5 µg/mL
same,LD50,HKC cells,approximately 4 μg/mL
same,LD50,[2],~6 µg/mL
same,bactericidal versus bacteriostatic nature (time-to-kill kinetics),S. aureus MW2,bactericidal; also recorded: bacteriocidal
same,IC50,hERG channel,3.16 µM
same,LD50,[3],2 µg/mL
same,selectivity ratio at 24 h,[4],16
same,solubility at 2 h,"[5]; PBS, 2 Hour, highest concentration with no detectable precipitate, read-out: Solubility Limit",3.13 µM
same,solubility at 2 h,"[5]; pbs, read-out: Solubility in PBS converted to mass concentration",2.03 µg/mL
